According to patent publication US6835382B2, “Ii peptide therapeutics to enhance antigen presentation” (University of Massachusetts, priority 1996, dated 2004):
Non-standard residues stand in square brackets, D forms with d. Cit = NC(=O)NCCC[C@H](N)C(=O)O

Tests used:
[1] = tested on: murine E^k MHC class II allele; experiment: antigenic peptide prepulse assay, E^k allele (fixed APC prepulsed with PGCC81-104); assay type: cell-based; conditions: for Activity in antigenic peptide prepulse assay, E^k (baseline = 1.0): prepulse 1.25 μM antigenic peptide; for Activity in antigenic peptide prepulse assay, E^k (baseline without AE peptide = 1.00): Table 19, prepulse 20 μM PGCC81-104; for Activity in antigenic peptide prepulse assay, E^k (baseline = 1): Table 23, as printed: antigenic peptide prepulse 64 μM, AE peptide 1:8 μM
Procedure: (§1) In a second type of assay, the “peptide prepulse assay”, the antigenic peptide is incubated with paraformaldehyde-fixed APC for 6 h. The APC are washed and incubated for 24 h with the AE101 series homolog and the T cell hybridoma specific for the antigenic peptide. After that incubation, an aliquot of the culture supernatant is transferred to a second culture to measure the relative degree of T hybridoma stimulation, as reflected in the effect of released interleukins on the growth of an interleukin-dependent, indicator cell line, as described above.
(§2) The two above described assays measure different aspects of the molecular mechanism of the AE101 series of peptides. In the “simultaneous assay”, AE101 series peptides are thought to induce the release of endogenously bound peptides and to permit the binding of the second, specific antigenic peptide which is relatively abundant in the culture fluid. The AE101 series peptides enhance antigenic peptide-specific T cell responses in simultaneous assays. In the “peptide prepulse” assay, the specific antigenic peptide becomes bound to MHC class II molecules on the surface of the fixed APC during the 6 h prepulse incubation. The effect of the AE101 series homologs is then thought to release that antigenic peptide, resulting in an apparent suppression of the immune response.
(§3) The AE101 series peptides are thought to contact the MHC class II molecules at a discrete site outside the antigenic peptide-binding groove. AE101 peptide binding to this “Ii-KEY” site is thought to induce a conformational change in the MHC class II molecules accelerating the dissociation of previously bound antigenic peptide. […] The AE101 series peptides thus inhibit antigenic peptide-specific T cell responses in the “peptide prepulse” assays.
(§4) Antigenic peptide-specific T cell activation was measured by the following procedure. Mitomycin C-treated A20 cells (A^dE^d) or CH27 cells APC (A^kE^k) were generated by incubating 5×10^6 cells/mL for 20 min at 37° C. with 0.025 mg/mL of mitomycin C (Sigma) in Dulbecco's Modified Eaglel's Medium (DMEM)/10 mM N-2(hydroxyethylpiperazine-N″[2-ethanesulfonic acid] (HEPES), followed by two washes with four volumes of DMEM-5% fetal calf serum (FCS), 10 mM HEPES. Fixed APC were generated by treating 1×10^6 cells/mL for 5 min with 0.5% paraformaldehyde in PBS (pH 7.2), followed by two washes with four volumes of DMEM-10% FCS, 10 mM HEPES. T cell hybridomas were irradiated 2200 rads before each assay.
(§5) The “peptide prepulse assay” was carried out under essentially the same conditions as described for the “simultaneous assay” with the following modifications. Fixed APC were first incubated for 6 h at 1×10^6 cells/mL in complete DMEM-5% FCS in 24-well microculture plates (1 mL/well) with antigenic peptide, followed by four washes with 10 volumes of DMEM-5% FCS. The cells were then exposed to varying concentrations of AE101 series peptide (64 μM, 16 μM, 4 μM, and 1 μM) for 24 h in the presence of the T cell hybridoma specific to the antigenic peptide. Interleukin release from these cultures was measured by proliferation of HT-2 cells to interleukins in supernatants transferred from the primary culture. Generally, a single dose of 64 μM of each AE101 series peptide was used. The baseline T cell response was measured by culturing T hybridoma cells with the antigenic peptide-prepulsed APC in the absence of AE101 series peptides.
Table 19: Activities of C-terminal truncation analogs of AE101 in an antigenic peptide prepulse assay. […] Paraformaldehyde-treated APC (fixed APC) expressing MHC class II molecules were incubated with antigenic peptide for 6 h (HEL106-116 for E^d and PGCC81-104 for E^k). After this incubation, the prepulsed APC were washed and cultured with T hybridoma cells and AE101 series peptides. The antigenic peptide concentration during the prepulse was 12 μM for Ed and 20 μM for E^k. The AE101 series peptide concentrations were 64 μM for E^d and 16 μM for E^k. […]

[2] = target: T1, murine E^d MHC class II allele (Mus musculus, UniProt P01904+P01915); experiment: antigenic peptide prepulse assay, E^d allele (fixed APC prepulsed with HEL106-116); assay type: cell-based; parameters: The A20 and CH27 B cell lymphoma lines express H-2^d and H-2^k alleles, respectively; endogenous in cells; host or cells: A20 B cell lymphoma (mitomycin C-treated or paraformaldehyde-fixed); conditions: for Activity in antigenic peptide prepulse assay, E^d (baseline = 1.0) / Activity in antigenic peptide prepulse assay, E^d (baseline without AE peptide = 1.00) / Activity in antigenic peptide prepulse assay, E^d (baseline = 1.00): AE peptide 64 μM; for Activity in antigenic peptide prepulse assay, E^d (baseline without AE peptide = 1.00): Table 19, prepulse 12 μM HEL106-116; for Activity in antigenic peptide prepulse assay, E^d (baseline = 1): Table 23, as printed: antigenic peptide prepulse 64 μM, AE peptide 1:4 μM
T1 sequence (P01904 26-255): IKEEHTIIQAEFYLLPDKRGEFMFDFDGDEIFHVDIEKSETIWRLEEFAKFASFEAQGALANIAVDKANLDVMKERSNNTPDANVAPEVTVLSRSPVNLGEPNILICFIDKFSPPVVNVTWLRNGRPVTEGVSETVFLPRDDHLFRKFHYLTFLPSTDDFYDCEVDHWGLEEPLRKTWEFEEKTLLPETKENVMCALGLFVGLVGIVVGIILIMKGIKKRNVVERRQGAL
T1 sequence (P01915 27-264 limits assumed): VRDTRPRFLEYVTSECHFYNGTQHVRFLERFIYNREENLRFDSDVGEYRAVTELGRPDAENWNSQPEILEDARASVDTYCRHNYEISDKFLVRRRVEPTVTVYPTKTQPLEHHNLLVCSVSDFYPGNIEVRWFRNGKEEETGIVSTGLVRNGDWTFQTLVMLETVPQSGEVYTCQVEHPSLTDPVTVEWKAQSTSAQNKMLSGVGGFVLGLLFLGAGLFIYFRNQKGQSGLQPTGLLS
Procedure: as §1, §2, §3, §4, §5
[…] […] Paraformaldehyde-treated APC (fixed APC) expressing MHC class II molecules were incubated with antigenic peptide for 6 h (HEL106-116 for E^d and PGCC81-104 for E^k). After this incubation, the prepulsed APC were washed and cultured with T hybridoma cells and AE101 series peptides. […] The AE101 series peptide concentrations were 64 μM for E^d and 16 μM for E^k. The dilutions of supernatant taken into the HT-2 cell assay were 1:4 for Ed and 1:2 for E^k.

[3] = Table 26, AE peptide 64 μM, supernatant 1:8
[4] = Table 26, prepulse 24 μM antigenic peptide, supernatant 1:2
[5] = AE peptide 16 μM, supernatant 1:2
[6] = Table 24, AE peptide 64 μM, prepulse 0.625 μM antigenic peptide, supernatant 1:8
[7] = Table 24, prepulse 24 μM antigenic peptide, supernatant 1:4
[8] = Table 25, AE peptide 64 μM, prepulse 2.5 μM antigenic peptide, supernatant 1:10
[9] = Table 25, prepulse 24 μM antigenic peptide, supernatant 1:4
[10] = Table 20, AE peptide 16 μM, prepulse 20 μM antigenic peptide, supernatant 1:2
[11] = Table 20, prepulse 3 μM antigenic peptide, supernatant 1:2

Substance | Activity in antigenic peptide prepulse assay, E^k (baseline = 1.00) [1, 6] | Activity in antigenic peptide prepulse assay, E^d (baseline = 1.00) [2, 7] | Activity in antigenic peptide prepulse assay, E^k (baseline = 1.00) [1, 8] | Activity in antigenic peptide prepulse assay, E^d (baseline = 1.00) [2, 9] | other results
Ac-LRM M LPK-NH2 (Ac-LRMMLPK-NH2) [AE220] |  |  |  |  | Activity in antigenic peptide prepulse assay, E^k (baseline = 1.0) [1, 3]: 0.92; Activity in antigenic peptide prepulse assay, E^d (baseline = 1.0) [2, 4]: 0.73
Ac-YRMKL-NH2 [AE116] |  |  |  |  | Activity in antigenic peptide prepulse assay, E^k (baseline without AE peptide = 1.00) [1, 5]: 0.10; Activity in antigenic peptide prepulse assay, E^d (baseline without AE peptide = 1.00) ([2]; supernatant 1:4): 0.80
Ac- (mL) RMKLPK-NH2 [AE174] | 0.81 | 0.60 |  |  | Activity in antigenic peptide prepulse assay, E^k (baseline = 1) ([1]; supernatant 1:2): 0.81; Activity in antigenic peptide prepulse assay, E^d (baseline = 1) ([2]; supernatant 1:8): 0.6
Ac-YRMKLPK-NH2 [AE113] |  |  |  |  | Activity in antigenic peptide prepulse assay, E^k (baseline without AE peptide = 1.00) [1, 5]: 0.04; Activity in antigenic peptide prepulse assay, E^d (baseline without AE peptide = 1.00) ([2]; supernatant 1:4): 0.10
Ac-ARMKNPK-NH2 [AE345] |  |  | 0.86 | 0.61 | 
Ac-YRMKLP-NH2 [AE115] |  |  |  |  | Activity in antigenic peptide prepulse assay, E^k (baseline without AE peptide = 1.00) [1, 5]: 0.07; Activity in antigenic peptide prepulse assay, E^d (baseline without AE peptide = 1.00) ([2]; supernatant 1:4): 0.49
Ac-LR (mL) KyPk-NH2 [AE306] | 1.00 | 0.68 |  |  | 
Ac-Y[Cit]MKLPKSAK-NH2 [AE131] |  |  | 0.98 | 0.61 | Activity in antigenic peptide prepulse assay, E^k (baseline = 1.00) [1, 10]: 0.71; Activity in antigenic peptide prepulse assay, E^d (baseline = 1.00) [2, 11]: 0.69
Ac-LRNKNPF-NH2 [AE348] |  |  | 0.72 | 0.39 | 
Ac-ARMKLPKSAK-NH2 [AE120] |  |  | 0.62 | 0.63 | 
Ac-LRMK (mL) PK-NH2 [AE175] | 0.87 | 0.70 |  |  | Activity in antigenic peptide prepulse assay, E^k (baseline = 1) ([1]; supernatant 1:2): 0.87; Activity in antigenic peptide prepulse assay, E^d (baseline = 1) ([2]; supernatant 1:8): 0.7
Ac-LRMK Y PK-NH2 (Ac-LRMKYPK-NH2; not fully specified; printed as Ac-LRMK Y PK-NH2) [AE235] | 0.80 | 0.30 | 0.76 | 0.25 | Activity in antigenic peptide prepulse assay, E^k (baseline = 1.0) [1, 3]: 0.60; T cell response relative to baseline without AE peptide (None = 1.0), E^k ([1]; Table 27, antigenic peptide prepulse 1.25 μM, AE101 series peptide 64 μM, HT-2 supernatant dilution 1:8): 0.83; Activity in antigenic peptide prepulse assay, E^k (baseline = 1.0) ([1]; Table 28, AE peptide 64 μM, supernatant 1:4): 0.80; Activity in antigenic peptide prepulse assay, E^d (baseline = 1.0) [2, 4]: 0.23; T cell response relative to baseline without AE peptide (None = 1.0), E^d ([2]; Table 27, antigenic peptide prepulse 24 μM, AE101 series peptide 64 μM, HT-2 supernatant dilution 1:8): 0.40; Activity in antigenic peptide prepulse assay, E^d (baseline = 1.0) ([2]; Table 28, prepulse 24 μM antigenic peptide, supernatant 1:4): 0.30
Ac-Y E MKLPKSAK-NH2 [AE136] |  |  |  |  | Activity in antigenic peptide prepulse assay, E^k (baseline = 1.00) [1, 10]: 0.97; Activity in antigenic peptide prepulse assay, E^d (baseline = 1.00) [2, 11]: 0.54
Ac-YRMKL hydrP KSAK-NH2 (Ac-YRMKL[hydrP]KSAK-NH2) [AE143] |  |  |  |  | Activity in antigenic peptide prepulse assay, E^k (baseline = 1.00) ([1]; Table 21, AE peptide 16 μM, prepulse 20 μM antigenic peptide, supernatant 1:2): 0.10; Activity in antigenic peptide prepulse assay, E^d (baseline = 1.00) ([2]; Table 21, prepulse 24 μM antigenic peptide, supernatant 1:8): 0.18
Ac-LRLKyPK-NH2 [AE308] | 0.63 | 0.93 |  |  | 
Ac-LR N KLPK-NH2 (Ac-LRNKLPK-NH2) [AE202] |  |  | 0.84 | 0.30 | 
Ac-LR (mL) KYPk-NH2 [AE305] | 0.91 | 0.72 |  |  | 
